The text below walks through data of patent US7504433B2, “Thiophene derivative PPAR modulators” (Eli Lilly and Company, priority 2003, dated 2009).

One may read the melting point as the temperature, or range, at which the solid turns liquid. For the molecule `Cc1cc(OC[C@@H](C)c2sc(-c3ccc(C(F)(F)F)cc3)cc2C)ccc1CCC(=O)O` (single isomer, unassigned) [Example 16, 3-(2-Methyl-4-{2-[3-methyl-5-(4-trifluoromethylphenyl)thiophen-2-yl]propoxy}-phenyl)propionic acid], the melting point lay in the range of 126.2 to 132.6 °C.
